# Measurements taken from the supplement of paper PMC11061612.
# What was measured:
# Test in all cases: combination Emax (second highest fraction inhibited in the dose matrix, 72 h); higher = more inhibition; extreme values may be limits of the assay
# [1] = tested on: DG-75 (Burkitt's Lymphoma)
# Method in brief: (§1)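 After 24 hours at 37°C and 5% CO2 in 1536-well plates, cells in DMEM/F12 or RPMI plus 10% FBS received two-drug dose matrices for 72 hours. Viability came from CellTiter-Glo 2.0 luminescence and was scaled as inhibition, anchored at 0 by vehicle wells and at 1 by blank wells. Combination Emax is taken as the second-highest inhibition in the matrix, and Bliss excess as the observed combination effect less EA + EB − EA·EB, with EA and EB the single-agent effects.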
# [2] = tested on: EMC-BAC-2 (Non-Small Cell Lung Carcinoma)
# Method in brief: as §1
# EW-13 (Ewing's Sarcoma) = tested on: EW-13 (Ewing's Sarcoma)
# Method in brief: as §1
# EW-3 (Ewing's Sarcoma) = tested on: EW-3 (Ewing's Sarcoma)
# Method in brief: as §1
# GOTO (Neuroblastoma) = tested on: GOTO (Neuroblastoma)
# Method in brief: as §1
# [3] = tested on: H-EMC-SS (Chondrosarcoma)
# Method in brief: as §1
# [4] = tested on: KINGS-1 (Low Grade Glioma)
# Method in brief: as §1
# [5] = tested on: KLE (Endometrial Carcinoma)
# Method in brief: as §1
# [6] = tested on: KYSE-150 (Esophageal Squamous Cell Carcinoma)
# Method in brief: as §1
# [7] = tested on: KYSE-50 (Esophageal Squamous Cell Carcinoma)
# Method in brief: as §1
# [8] = tested on: NCI-H1573 (Lung Adenocarcinoma)
# Method in brief: as §1
# [9] = tested on: NCI-H2405 (Lung Adenocarcinoma)
# Method in brief: as §1
# [10] = tested on: NCI-H322M (Lung Adenocarcinoma)
# Method in brief: as §1
# [11] = tested on: NCI-H513 (Other Solid Carcinomas)
# Method in brief: as §1
# NH-12 (Neuroblastoma) = tested on: NH-12 (Neuroblastoma)
# Method in brief: as §1
# [12] = tested on: PF-382 (T-Lymphoblastic Leukemia)
# Method in brief: as §1
# RPMI-7951 (Melanoma) = tested on: RPMI-7951 (Melanoma)
# Method in brief: as §1
# [13] = tested on: SCC-9 (Oral Cavity Carcinoma)
# Method in brief: as §1
# [14] = tested on: SNU-C1 (Colorectal Carcinoma)
# Method in brief: as §1
# [15] = tested on: VMRC-LCD (Lung Adenocarcinoma)
# Method in brief: as §1
structure (smiles),measurement,setting,value
"CCc1c2c(nc3ccc(O)cc13)-c1cc3c(c(=O)n1C2)COC(=O)[C@]3(O)CC [SN-38] + O=C(c1cc(Cc2n[nH]c(=O)c3ccccc23)ccc1F)N1CCN(C(=O)C2CC2)CC1 [Olaparib] (first compound max 0.3 µM, 7x7, partner max 10 µM)",combination Emax,[1],0.852
same,combination Emax,[2],0.531
same,combination Emax,EW-13 (Ewing's Sarcoma),0.811
same,combination Emax,EW-3 (Ewing's Sarcoma),0.884
same,combination Emax,GOTO (Neuroblastoma),0.879
same,combination Emax,[3],0.676
same,combination Emax,[4],0.287
same,combination Emax,[5],0.453
same,combination Emax,[6],0.728
same,combination Emax,[7],0.269
same,combination Emax,[8],0.187
same,combination Emax,[9],0.472
same,combination Emax,[10],0.869
same,combination Emax,[11],0.615
same,combination Emax,NH-12 (Neuroblastoma),0.903
same,combination Emax,[12],1
same,combination Emax,RPMI-7951 (Melanoma),0.948
same,combination Emax,[13],0.365
same,combination Emax,[14],0.349
same,combination Emax,[15],0.121
